In patent US20100048692A1, “Naphthofuranone Derivatives as Specific Inhibitors of Thymidylate Synthases” (priority 2006, published 2010):
≈ marks a conversion by molar mass, not a printed value.

What was measured:
[1] = target: CnTS (Cryptococcus neoformans, UniProt P0CS12); format: biochemical
Method: (§1) Enzymatic inhibition assay: The compounds hereby analyzed were previously dissolved in DMSO. The inhibitor concentrated solution was obtained by dissolving 2 mg of compound in 1 mL of DMSO. Next, solutions thus obtained were successively preserved and the […], and the stability of their working conditions was constantly controlled. The spectrophotometrical determinations of enzymatic reaction kinetics were carried out using a Parkin-Elmer λ16 spectrophotometer, provided with a multicell system which was maintained at the constant temperature of 20 C. degrees, with a HAAAKE F3C thermostatted bath.
(§2) The elaboration of the data was carried out using Kaleidagraph 3.0; this software was provided by Macintosh (Adelbeck, Software Reading, Pa., 1989, version 2.3). The measurement of Ki (inhibition constant) was obtained through enzymatic inhibition essays carried out under stationary conditions. […] The enzyme is added finally. The assay aiming at controlling TS enzymatic activity is repeated at regular intervals. […] In this case inhibition constants were obtained through a non-linear regression analysis, which utilized of the least squared method, of the enzymatic reaction initial speeds relating to the inhibitor concentration; equation was the following:
Vi=Vmax*(1−([I])/([I]+(Ki*(1+([s]/Km))))), where
Vi=enzymatic reaction initial velocity, Vmax=enzymatic reaction maximum velocity, I=inhibitor concentration, Ki=inhibition constant, S=substrate concentration, Km=Michaelis-Menten.
Using this equation it is possible to obtain Ki making use of a minimal amount of experimental data. The specificity index relating to each of the compounds (Bio. Med. Chem. ) refers to the relation between KihTS/Kiother enzyme.

[2] = target: T1, hDHFR (human DHFR) (Homo sapiens, UniProt P00374); experiment: Enzymatic inhibition assay (Ki), human DHFR; format: biochemical
T1 construct: made in house; host or cells: Escherichia coli chi2913
T1 sequence (P00374 1-187): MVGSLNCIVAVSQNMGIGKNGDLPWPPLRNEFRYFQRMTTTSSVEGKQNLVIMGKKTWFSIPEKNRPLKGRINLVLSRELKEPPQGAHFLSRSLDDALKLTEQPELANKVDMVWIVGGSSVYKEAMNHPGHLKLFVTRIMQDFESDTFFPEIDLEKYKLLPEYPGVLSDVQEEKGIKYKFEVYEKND
Method: The purified enzyme has been stored at −80° C. […] The enzymatic assays for the measurements of the Km consist in measuring the initial rate of the enzymatic reaction in presence of variable and increasing substrate (FAH2).
as §1
as §2, with “The” for “The elaboration of the data was carried out using Kaleidagraph 3.0; this software was provided by Macintosh (Adelbeck, Software Reading, Pa., 1989, version 2.3). The”, “following: […]” for “following:”

[3] = test system: S. epidermidis strains (multiresistant); experiment: Sensitivity assay and growth curve, multiresistant S. epidermidis strains; format: cell-based, Staphylococcus epidermidis
Method: (§3) The bacterial cultures were obtained by sowing bacteria in Mueller-Hinton (Difco) stirring at 37 C for 24 hours, and were then diluted, after reaching an appreciable level of exponential growth, using a growth plot in order to get a […] CFU/mL inoculum.
(§4) Following, the obtained cultures were put in contact with growing concentrations of the present compound. Furthermore, it was measured the minimal concentration inhibiting the growth (MIC) of each of these compounds. In Table 2 several MIC obtained by different bacterial pathogenic strains have been reported that were treated using compounds of the present invention and were also compared with those obtained through ciprofluoxacin (cpx).

[4] = test system: multiresistant strains (clinical isolates); experiment: Sensitivity assay on 23 isolated multiresistant bacterial strains; format: cell-based; settings: multiresistant strains taken into consideration
Method: as §3, §4

[5] = test system: Streptococcus 42; experiment: Sensitivity assay (MIC); format: cell-based
Method: (§5) The anti-bacterial properties of the compounds hereby described were evaluated towards: a) bacterial native strains comprehending gram-positive and gram-negative bacteria. The bacterial cultures were obtained by sowing bacteria in Mueller-Hinton (Difco) stirring at 37 C for 24 hours, and were then diluted, after reaching an appreciable level of exponential growth, using a growth plot in order to get a […] CFU/mL inoculum. Following, the obtained cultures were put in contact with growing concentrations of the present compound. Furthermore, it was measured the minimal concentration inhibiting the growth (MIC) of each of these compounds. In Table 2 several MIC obtained by different bacterial pathogenic strains have been reported that were treated using compounds of the present invention and were also compared with those obtained through ciprofluoxacin (cpx).

[6] = test system: Listeria monocytogenes 6; experiment: Sensitivity assay (MIC); format: cell-based
Method: as §5

[7] = test system: Enterococcus faecalis ATCCC 29212; experiment: Sensitivity assay (MIC); format: cell-based
Method: as §5

[8] = test system: Staphylococcus saprophiticus ATCC15305; experiment: Sensitivity assay (MIC); format: cell-based
Method: as §5

[9] = test system: Staphylococcus aureus 341; experiment: Sensitivity assay (MIC); format: cell-based
Method: as §5

[10] = test system: Listeria monocytogenes 4; experiment: Sensitivity assay (MIC); format: cell-based
Method: as §5

[11] = test system: Listeria monocytogenes 5; experiment: Sensitivity assay (MIC); format: cell-based
Method: as §5

[12] = test system: Listeria monocytogenes 7; experiment: Sensitivity assay (MIC); format: cell-based
Method: as §5

[13] = test system: Escherichia coli 292; experiment: Sensitivity assay (MIC); format: cell-based
Method: as §5

[14] = test system: Staphylococcus aureus K28; experiment: Sensitivity assay (MIC); format: cell-based
Method: as §5

[15] = test system: Listeria monocytogenes ATCC 4428; experiment: Sensitivity assay (MIC); format: cell-based
Method: as §5

[16] = test system: Staphylococcus haemolyticus ATCC 2997; experiment: Sensitivity assay (MIC); format: cell-based
Method: as §5

[17] = test system: Staphylococcus aureus 343; experiment: Sensitivity assay (MIC); format: cell-based
Method: as §5

[18] = test system: Listeria monocytogenes 8; experiment: Sensitivity assay (MIC); format: cell-based
Method: as §5

[19] = test system: Citrobacter 224; experiment: Sensitivity assay (MIC); format: cell-based
Method: as §5

[20] = test system: Listeria monocytogenes 3; experiment: Sensitivity assay (MIC); format: cell-based
Method: as §5

[21] = test system: Escherichia coli 256; experiment: Sensitivity assay (MIC); format: cell-based
Method: as §5

[22] = test system: Staphylococcus aureus ATCC29213; experiment: Sensitivity assay (MIC); format: cell-based
Method: as §5

[23] = test system: VERO cells; experiment: Citotoxicity assay (MTT test on VERO cells); format: cell-based; settings: for MTT test, percentage of cellular growth: VERO cells, 24-hour incubation
Method: Aiming at evaluating the citotoxicity level, the compounds included in the present invention were submitted to the MTT assay, by using VERO cells on MEM soil/ground which was previously added with […]), penicillin (1%) (50 U/ml), streptomycine (50 μg/ml) e L-glutamine (1%) according to the Ishioka method (1988). Afterwards the cultures have been observed for 2 days through microscope at indirect light, and the living cells have been quantified in a Burker camera using the Tripan blue exclusion assay.
Later several increasing concentrations of the analyzed compound were added thereto and, after a 24-hour incubation period, the mitochondrial dehydrogenase activity was measured in the living cells (MTT assay) (Mosmann, T. 1983), by using a sample of the hereof compound which had not been previously as a comparison.

Chain of CnTS (P0CS12 whole entry): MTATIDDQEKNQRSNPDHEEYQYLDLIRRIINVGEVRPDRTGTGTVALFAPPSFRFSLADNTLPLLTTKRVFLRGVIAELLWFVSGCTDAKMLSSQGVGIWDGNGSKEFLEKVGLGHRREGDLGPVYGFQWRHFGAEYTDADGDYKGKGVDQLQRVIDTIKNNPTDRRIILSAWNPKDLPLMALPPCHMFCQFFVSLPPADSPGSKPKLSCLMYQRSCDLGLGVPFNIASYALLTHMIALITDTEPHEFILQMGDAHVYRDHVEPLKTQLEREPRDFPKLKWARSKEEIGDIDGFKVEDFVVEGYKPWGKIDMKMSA

Row | Compound | Ki [1] [µM] | Ki [2] [µM] | SSI hTS vs hDHFR [2] | Minimum inhibitory concentration (MIC) [5] [µg/mL] | Minimum inhibitory concentration (MIC) [6] [µg/mL] | Minimum inhibitory concentration (MIC) [7] [µg/mL] | Minimum inhibitory concentration (MIC) [8] [µg/mL] | Minimum inhibitory concentration (MIC) [9] [µg/mL] | Minimum inhibitory concentration (MIC) [10] [µg/mL] | Minimum inhibitory concentration (MIC) [11] [µg/mL] | Minimum inhibitory concentration (MIC) [12] [µg/mL] | Minimum inhibitory concentration (MIC) [13] [µg/mL] | Minimum inhibitory concentration (MIC) [14] [µg/mL] | Minimum inhibitory concentration (MIC) [15] [µg/mL] | Minimum inhibitory concentration (MIC) [16] [µg/mL] | Minimum inhibitory concentration (MIC) [17] [µg/mL] | Minimum inhibitory concentration (MIC) [18] [µg/mL] | Minimum inhibitory concentration (MIC) [19] [µg/mL] | Minimum inhibitory concentration (MIC) [20] [µg/mL] | Minimum inhibitory concentration (MIC) [21] [µg/mL] | other results
1 | Cc1cc(O)c(C(C)C)cc1C1(c2cc(C(C)C)c(O)cc2C)OC(=O)c2c1ccc1ccccc21 [Compound 2, 33,3-Bis-(4-hydroxyl-5-isopropyl-2-methylphenyl)-3H-naphtho(1,2-c)furan-1-one] | 0.6 | 35 | 88 | – | – | – | – | – | – | – | – | – | – | – | – | – | – | – | – | – | –
2 | O=C1OC(c2ccc(O)c(I)c2)(c2ccc(O)c(I)c2)c2ccc3ccccc3c21 [Compound 3] | 4.5 | 3.9 | 0.01 | – | – | – | – | – | – | – | – | – | – | – | – | – | – | – | – | – | –
3 | O=C1OC(c2ccc(O)c(Br)c2)(c2ccc(O)c(Br)c2)c2ccc3ccccc3c21 [Compound 4] | 2.7 | 33 | 0.2 | – | – | – | – | – | – | – | – | – | – | – | – | – | – | – | – | – | –
4 | O=C1OC(c2cc(Br)c(O)c(Br)c2)(c2cc(Br)c(O)c(Br)c2)c2ccc3ccccc3c21 [Compound 5, 3,3-bis-(3,5-bromo-4-hydroxyphenyl)-3H-naphtho(1,2-c)furan-1-one] | 13 | 69 | 0.3 | 2.5 (≈ 3.66 µM) | 2.5 (≈ 3.66 µM) | 2.5 (≈ 3.66 µM) | 1 (≈ 1.46 µM) | 2.5 (≈ 3.66 µM) | 2.5 (≈ 3.66 µM) | 2.5 (≈ 3.66 µM) | 2.5 (≈ 3.66 µM) | >25 | 2.5 (≈ 3.66 µM) | 2.5 (≈ 3.66 µM) | 2.5 (≈ 3.66 µM) | 2.5 (≈ 3.66 µM) | 2.5 (≈ 3.66 µM) | >25 | 2.5 (≈ 3.66 µM) | >25 | inhibitory effect on S. epidermidis growth (FIG. 1) ([3]; 0.1 mg/L): No inhibitory effect; antibacterial activity on S. epidermidis growth (FIG. 1) ([3]; 0.5 mg/L, after a 8 hours period): antibacterial activity becomes evident; antibacterial effect on S. epidermidis growth (FIG. 1) ([3]; 1 mg/L): best result; concentration to which the strain is sensitive ([3]; S. epidemidis strain resistant to 17 antibiotics): 0.5 mg/L; lowest MIC on S. epidermidis strains ([3]; multiresistant S. epidermidis strains): 0.5 to 1 µg/mL; activity on multiresistant strains [4]: active on the major part of the multiresistant strains; Minimum inhibitory concentration (MIC) [22]: 2.5 µg/mL (≈ 3.66 µM); citotoxicity ([23]; 1 mg/L, VERO cells (Table 3)): not to be citotoxic; MTT test, percentage of cellular growth ([23]; 1.56 mg/L): 100 percentage; MTT test, percentage of cellular growth ([23]; 3.12 mg/L): 100 percentage; MTT test, percentage of cellular growth ([23]; 6.25 mg/L): 100 percentage; MTT test, percentage of cellular growth ([23]; 12.05 mg/L): 100 percentage; MTT test, percentage of cellular growth ([23]; 25 mg/L): 100 percentage; MTT test, percentage of cellular growth ([23]; 50 mg/L): >100 percentage
5 | O=C1OC(c2ccc(O)cc2)(c2ccc(O)cc2)c2ccc3ccccc3c21 [Compound 6, 3,3-Bis-(4-hydroxyphenyl)-1H-naphtho[1,2-c]furan-3-one] | – | 13 | – | – | – | – | – | – | – | – | – | – | – | – | – | – | – | – | – | – | –
6 | O=C1OC(c2ccc(O)c(Cl)c2)(c2ccc(O)c(Cl)c2)c2ccc3ccccc3c21 [Compound 7, 3,3-Bis-(3-chlorine-4-hydroxyphenyl)1H-naphtho(1,2-c)furan-3-one] | 8.1 | – | 1 | – | – | – | – | – | – | – | – | – | – | – | – | – | – | – | – | – | –
7 | O=C1OC(c2ccc(O)c(F)c2)(c2ccc(O)c(F)c2)c2ccc3ccccc3c21 [Compound 8, 3,3-Bis-(3-fluorine-4-hydroxyphenyl)1H-naphtho(1,2-c)furan-3-one] | 3.5 | 109 | 1 | 25 (≈ 61.8 µM) | 25 (≈ 61.8 µM) | 25 (≈ 61.8 µM) | 25 (≈ 61.8 µM) | 25 (≈ 61.8 µM) | 25 (≈ 61.8 µM) | 25 (≈ 61.8 µM) | 25 (≈ 61.8 µM) | >50 | 25 (≈ 61.8 µM) | 25 (≈ 61.8 µM) | 25 (≈ 61.8 µM) | 25 (≈ 61.8 µM) | 25 (≈ 61.8 µM) | >50 | 25 (≈ 61.8 µM) | >50 | Minimum inhibitory concentration (MIC) [22]: 25 µg/mL (≈ 61.8 µM)
8 | O=C(O)c1cn(C2CC2)c2cc(N3CCNCC3)c(F)cc2c1=O [cpx, ciprofluoxacin, reference compound] | – | – | – | >5 | 2.5 (≈ 7.54 µM) | 12.5 (≈ 37.7 µM) | 1 (≈ 3.02 µM) | 1.2 (≈ 3.62 µM) | 1 (≈ 3.02 µM) | 2.5 (≈ 7.54 µM) | 1 (≈ 3.02 µM) | >25 | 0.5 (≈ 1.51 µM) | 2.5 (≈ 7.54 µM) | 2.5 (≈ 7.54 µM) | 0.5 (≈ 1.51 µM) | 1 (≈ 3.02 µM) | >25 | 2.5 (≈ 7.54 µM) | >25 | Minimum inhibitory concentration (MIC) [22]: 0.5 µg/mL (≈ 1.51 µM)
